Source: US11992498B2, “Substituted N9-adenine derivatives, pharmaceutical compositions containing same and use thereof” (priority 2018, dated 2024)

What was measured:
Format in all cases: cell-based, mouse
C2C12 cells [1] = assay: Glucose consumption test (2-deoxyglucose uptake, luminometric) in C2C12 myotubes; details: one hour incubation
Experimental: C2C12 cells of the mouse muscle myoblastoma cell line (from Sigma-Aldrich) were seeded at a cell density of 10,000 cells per well in a white 96-well plate compatible with the use of a luminometer. Cells were grown for 5 days in 200 μl/well of growth medium (high glucose DMEM, 10% foetal bovine serum […], penicillin and […]) in an incubator at 37° C. and 5% CO2. The medium was changed every two days. The medium was then replaced with a differentiation medium (low glucose DMEM, 2% […], penicillin and […]), allowing the cells to differentiate into myotubes for three days. The medium was changed every day. One day prior to testing, cells were serum starved (low glucose DMEM, penicillin and […]). The medium was then replaced by a DMEM medium without glucose and the compound N9-(3-diethylphosphonyl)phenyl-adenine was incubated for one hour at different concentrations, replicating the conditions in quadruplicate. The positive control consisted of 100 nanomolar human insulin solution (from Sigma). A Promega glucose consumption kit was used following the manufacturer's instructions. […]
Total luminescence was measured on a Biotek MX luminometric plate reader. […]

C2C12 cells [2] = assay: MTT cell viability/proliferation assay in C2C12 myotubes
Experimental: MTT Cell Viability/Proliferation Assay
The MTT redox assay is based on the metabolic reduction of bromide from 3-(4,5-dimethylthiazol-2-yl)-2,5-diphenyltetrazole (MTT) that is produced by the mitochondrial enzyme succinate-dehydrogenase, which colours the formazan dye blue, allowing to determine the mitochondrial functionality of the treated cells.
C2C12 cells were seeded at a density of 10,000 cells per well in a white 96-well plate compatible with the use of a luminometer. Cells were grown for 5 days in 200 μl/well of growth medium (high glucose DMEM, 10% FBS, penicillin and […]), with the medium being replaced every two days. Subsequently, the medium was replaced by a differentiation medium (low glucose DMEM, 2% NHS, penicillin and […]) and the cells were allowed to differentiate in myotubes for three days, the medium being changed every day. In all processes, cells were incubated at 37° C. and 5% CO2 in a cell incubator. The compound N9-(3-diethylphosphonyl)phenyl-adenine was incubated for 24 and 48 hours in low glucose DMEM without serum. […] After incubation, 10 μl of the MTT reagent (Abcam) was added to each well and, after 30 min, 45 min and 60 min of incubation, the absorbance at 490 nm was measured in a photometer with a Biotek TX plate reader. The reading is an indirect measure of the NAD(P)H enzyme dependent on cellular oxidase reductases. […]

AMPK = AMPK activation assay (ELISA ratio phosphorylated α-AMPK:total α-AMPK in C2C12 cells); details: concentrations as low as 30 nanomolar, 4 hours of incubation
Experimental: C2C12 cells from the mouse muscle myoblastoma cell line (from Sigma-Aldrich) were seeded at a cell density of 10,000 cells per well in a 96-well plate in 200 μl of growth medium (high glucose DMEM, 10% foetal bovine serum […], penicillin and […]). The cells were allowed to grow until confluence and on the day of the assay they were incubated with the compound of interest in 100 μl of growth medium at 37° C. and 5% CO2 in an incubator for between 1 and 24 hours. All conditions were tested in quadruplicate. The compounds were administered dissolved in sterile anhydrous dimethyl sulphoxide at different concentrations. As a positive control for AMPK activation, an adenosine monophosphate (AMP) solution with a final concentration of […] was used. After the corresponding times, the medium was removed and the cells were carefully washed three times with PBS at room temperature and the Abcam Elisa kit was used to quantify the ratio of phosphorylated α-AMPK:total α-AMPK. The manufacturer's instructions were followed and the signal was quantified using a Licor Odissey® scanner.
The compounds selected as AMPK activators according to the criteria described above are used in glucose consumption tests and MTT cell viability tests.

In the case of N9-(3-diethylphosphonyl)phenyl-adenine, the “Luminosity as % of the control (glucose consumption)” value (C2C12 cells [1]; 30 nanomolar, C2C12 myotubes) is reported as 125±9%, the “glucose consumption activity compared with insulin controls” value (C2C12 cells [1]; concentrations as low as 30 nanomolar, control 100 nanomolar human insulin) is reported as “analogous to or greater than that of insulin controls” and the “Luminosity as % of the control (MTT)” value (C2C12 cells [2]; 30 nanomolar, 48 hours incubation) is reported as 157±5%. For the same substance, the “MTT signal compared to controls” value (C2C12 cells [2]; nanomolar concentrations) was “significantly higher signal compared to controls”, the “AMPK activity as % of that obtained with the AMP positive control” value (AMPK) was “greater than 500%” and the “AMPK activity compared with the AMP positive control” value (AMPK) was “higher AMPK activity than the AMP positive control”.
